For orientation: inhibition means the relative decrease from the control value, in per cent.

The source of these data is patent US5250554A, “Benzimidazole derivatives useful as angiotensin II inhibitors” (Takeda Chemical Industries, Ltd., priority 1989, dated 1993).

Experiment [1] addresses T1, A-II receptor (Bos taurus, UniProt P25104).
T1 construct: An A-II receptor was prepared from the membrane fraction of bovine adrenal cortex; from tissue; host or cells: bovine adrenal cortex, membrane fraction
T1 sequence (P25104 1-359): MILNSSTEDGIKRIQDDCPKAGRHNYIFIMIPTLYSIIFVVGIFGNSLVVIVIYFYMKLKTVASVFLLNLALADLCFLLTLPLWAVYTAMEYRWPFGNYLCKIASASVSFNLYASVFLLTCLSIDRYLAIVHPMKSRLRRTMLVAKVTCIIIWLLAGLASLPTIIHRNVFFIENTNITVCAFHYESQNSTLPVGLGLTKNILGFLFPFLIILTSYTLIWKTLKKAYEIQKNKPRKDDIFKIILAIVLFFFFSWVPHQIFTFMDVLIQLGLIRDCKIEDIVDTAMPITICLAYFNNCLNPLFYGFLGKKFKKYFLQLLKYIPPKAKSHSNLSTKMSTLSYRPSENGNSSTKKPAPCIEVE
The experiment can be described thus: Inhibition of binding of angiotensin-II to angiotensin receptor (radioreceptor assay, 125I-A-II). Also on record: species or system bovine (membrane fraction of bovine adrenal cortex). Particulars: bovine adrenal cortex membrane, 125I-A-II, 1 h room temperature; for inhibition at 10 µM: 1 × 10^-5 M, read-out: Radioreceptor assay, inhibition of A-II binding, 1 × 10^-5 M; for inhibition at 1 µM: 1 × 10^-6 M, read-out: Radioreceptor assay, inhibition of A-II binding, 1 × 10^-6 M. As to the method: Inhibition of binding of angiotensin-II to angiotensin receptor
An A-II receptor was prepared from the membrane fraction of bovine adrenal cortex.

Experiment [2] deals with pressor action of A-II. Nature of the experiment: Inhibitory effect on pressor action of A-II (oral drug, i.v. A-II 100 ng/kg). The class given is in vivo, Jcl:SD rats (9 week old, male). Particulars: Rattus norvegicus, po, rats, A-II 100 ng/kg i.v.; for inhibition in vivo at 3 mg/kg: 3 mg/kg p.o., read-out: Pressor response to A II (p.o.), 3 mg/kg (percent inhibition); for inhibition in vivo at 30 mg/kg: 30 mg/kg p.o., read-out: Pressor response to A II (p.o.), 30 mg/kg (percent inhibition). From the text: Inhibitory effect of the compound of this invention on pressor action of A-II
Jcl:SD rats (9 week old, male) were used. On the day prior to that of the experiment, these animals were applied with cannulation into the femoral artery and vein under anesthesia with pentobarbital Na. The animals were fasted but allowed free access to drinking water until the experiment was started. On the day of conducting the experiment, the artery cannula was connected with a blood-pressure transducer, and the average blood pressure was recorded by means of polygraph. […] The drugs were orally administered, and then, at each point of the measurement, A-II was administered intravenously, and the pressor action was similarly measured. By comparing the pressor action before and after administration of the drug, the percent inhibition by the drug on A-II-induced pressor action was evaluated.

Experiment [3] concerns angiotensin II. Particulars: as reported; cited from earlier work.

As to `COCc1nc2cccc(C(=O)O)c2n1Cc1ccc(-c2ccccc2-c2nnn[nH]2)cc1` [Working Example 49, 2-Methoxymethyl-1-[[2'-(1H-tetrazol-5-yl)biphenyl-4-yl]methyl]benzimidazole-7-carboxylic acid], in experiment [1], the inhibition at 10 µM is 73% and the inhibition at 1 µM was found to be 35%. In experiment [2], the inhibition in vivo at 3 mg/kg is more than 70% and the inhibition in vivo at 30 mg/kg is more than 70%.

In the case of `CSCc1nc2cccc(C(=O)O)c2n1Cc1ccc(-c2ccccc2-c2nnn[nH]2)cc1` [Working Example 51, 2-Methylthiomethyl-1-[[2'-(1H-tetrazol-5-yl)biphenyl-4-yl]methyl]benzimidazole-7-carboxylic acid], in experiment [1], the inhibition at 10 µM was 76% and the inhibition at 1 µM came out at 45%. Moreover, in experiment [2], the inhibition in vivo at 3 mg/kg was more than 70% and the inhibition in vivo at 30 mg/kg is more than 70%.

Regarding `CCCCc1nc2ccc(OC)cc2n1Cc1ccc(-c2ccccc2-c2nn[nH]n2)cc1` [compound 19, reference compound], in experiment [1], the inhibition at 10 µM amounted to 88% and the inhibition at 1 µM came to 47%. Further, the inhibition in vivo at 3 mg/kg in experiment [2] is less than 30%.

For the molecule `CCCCc1nc2ccc(Cl)cc2n1Cc1ccc(-c2ccccc2-c2nn[nH]n2)cc1` [compound 21, 2-Butyl-6-chloro-1-[[2,-(1H-tetrazol-5-yl)biphenyl-4-yl]methyl]benzimidazol, reference compound], in experiment [1], the inhibition at 10 µM is 79% and the inhibition at 1 µM turned out to be 22%. Further, in experiment [2], the inhibition in vivo at 30 mg/kg is less than 30%.

Turning to `CCCCc1nc2c(C(N)=O)cccc2n1Cc1ccc(-c2ccccc2-c2nnn[nH]2)cc1` [compound 30, 2-Butyl-1-[[2'-(1H-tetrazol-5-yl)biphenyl-4-yl]methyl]benzimidazole-4-carboxamide, reference compound], in experiment [1], the inhibition at 10 µM was determined as 40% and the inhibition at 1 µM worked out at 1%. Besides, in experiment [2], the inhibition in vivo at 3 mg/kg was less than 30% and the inhibition in vivo at 30 mg/kg was less than 30%.

On to `CCCCc1nc2cc(C(=O)O)ccc2n1Cc1ccc(-c2ccccc2-c2nnn[nH]2)cc1` [compound 44, 2-Butyl-1-[[2'-(1H-tetrazol-5-yl)biphenyl-4-yl]methyl]benzimidazole-5-carboxylic acid, reference compound], for which, in experiment [1], the inhibition at 10 µM came out at 66% and the inhibition at 1 µM amounted to 13%. Moreover, the inhibition in vivo at 3 mg/kg in experiment [2] was less than 30%.

On to `CCCCc1nc2ccc(C(=O)OC)cc2n1Cc1ccc(-c2ccccc2-c2nnn[nH]2)cc1` [compound 49, Methyl 2-butyl-1-[[2'-(1H-tetrazol-5-yl)biphenyl-4-yl]methyl]benzimidazole-6-carboxylate, reference compound], for which, in experiment [1], the inhibition at 10 µM came out at 94% and the inhibition at 1 µM stood at 77%. For the same molecule, in experiment [2], the inhibition in vivo at 3 mg/kg is less than 30% and the inhibition in vivo at 30 mg/kg is less than 30%.

Take `CCCCc1nc2ccc(C(=O)O)cc2n1Cc1ccc(-c2ccccc2-c2nn[nH]n2)cc1` [compound 50, reference compound]: in experiment [1], the inhibition at 10 µM amounted to 53% and the inhibition at 1 µM came to 7%. Also, in experiment [2], the inhibition in vivo at 3 mg/kg is less than 30% and the inhibition in vivo at 30 mg/kg is less than 30%.

In the case of `CNCC(=O)N[C@@H](CCCN=C(N)N)C(=O)N[C@H](C(=O)N[C@@H](Cc1ccc(O)cc1)C(=O)N[C@H](C(=O)N[C@@H](Cc1cnc[nH]1)C(=O)N1CCC[C@H]1C(=O)N[C@@H](C)C(=O)O)C(C)C)C(C)C` [saralasin], the “angiotensin II antagonism” value in experiment [3] is on record as “potent angiotensin II antagonism”.

For the molecule [Sar^1, Ala^8 ]AII, the “angiotensin II antagonism” value in experiment [3] is given as “potent angiotensin II antagonism”.
